# Laboratory results as given in patent publication US7118895B2, “Process for producing aglycon by using diglycosidase and flavor-improved food containing the aglycon and converting agent to be used in the process” (Amano Enzyme Inc., priority 2000, dated 2006).
# Experiments:
# [1] = Effective amount of Amylase AD “Amano” 1 accelerating the conversion into aglycon isoflavones by diglycosidase; type: biochemical; conditions: Amylase AD “Amano” 1 at 0.005% (w/v) with diglycosidase 0.1% (w/v); roasted soy flour 30% (w/v), pH 5.0, 50° C., 3 hours
# Description: Roasted soy flour (manufactured by Fuji Shokuhin K.K.) was suspended into 0.1 M sodium acetate adjusted to pH 3.15, the substrate concentration was adjusted to 30% (w/v), and the pH of the solution to 5.0. The suspension was pre-incubated at 50° C. for 1 hour, whereby the temperature of the suspension was elevated to 50° C. To the suspension were added diglycosidase so as to be a final concentration of 0.1% (w/v) (0.3 AU) and Amylase AD “Amano” 1 (manufactured by Amano Enzyme Innc.) so as to be 0.1, 0.05, 0.01, 0.005, and 0.0001% (w/v). The whole was reacted at 50° C. for 3 hours and the change of isoflavone composition was analyzed by HPLC.
# [2] = system: Diglycosidase derived from A. fumigatus; test: Reactivity toward various isoflavone glycosides (HPLC); type: biochemical, Aspergillus fumigatus; set-up: unit not given here; conditions: 55 °C, pH 4.0
# Description: (§1) Diglycosidase was diluted with an acetate buffer of pH 4.0 to prepare a 0.75 AU/mL enzyme solution. As references, a similar operation was conducted using β-glucosidase (manufactured by Fluka) derived from Aspergillus niger, β-glucosidase (manufactured by Sigma) derived from almond, β-xylosidase derived from pectinase G (manufactured by Amano Enzyme Inc.). Each of purified products of isoflavone glycosides (glycitin, acetylglycitin, malonylglycitin, daidzin, acetyldaidzin, malonyldaidzin, genistin, acetylgenistin, malonylgenistin, all manufactured by Nacalai Tesque, Inc.) was dissolved in methanol to prepare each 2 mM substrate solution. The reaction was carried out by mixing 10 μL of a substrate solution, 200 μL of 20 mM acetate buffer (pH 4.0), and 40 μL of each purified enzyme solution at a total liquid volume of 250 μL. The reaction was carried out at 55° C. and isolation of an aglycon isoflavone from an isoflavone glycoside in the reaction mixture was detected by HLPC at 0, 1, 3, and 6 hours of the reaction.
# (§2) To the reaction mixture was added 700 μL of ethanol, followed by stirring and ultrasonication. After centrifugation at 15,000 rpm and 4° C. for 10 minutes, the supernatant was filtered through a filter and then the filtrate was applied to HPLC.
# (§3) The isoflavone glycoside and aglycon isoflavone contained in the filtrate was separated and detected by a high performance liquid chromatography (HPLC, Shimadzu CLASS LC-10 system) using TOSOH TSK gel ODS-80TM column (manufactured by Tosoh Corporation). […] The absorbance at 260 nm was detected by a UV detector (Shimadzu, SPD-10AV). Using purified products (manufactured by Nacalai Tesque, Inc.) of the above isoflavone glycosides and aglycon isoflavones, the isoflavone glycoside and aglycon isoflavone were quantitatively determined according to a calibration curve method. By the way, unless otherwise stated, the measuring conditions of HPLC herein mean those described in the example.
# [3] = system: β-Xylosidase derived from pectinase G; test: as above; type: biochemical; set-up: unit not given here; conditions: 55 °C, pH 4.0
# Description: as §1, §2, §3
# [4] = system: β-Glucosidase derived from almond; test: as above; type: biochemical; set-up: unit not given here; conditions: 55 °C, pH 4.0
# Description: as §1, §2, §3
# Purified diglycosidase = test: Influence of free glucose on diglycosidase activity; type: biochemical, Penicillium multicolor IAM7153; conditions: isolated aglycon amount at glucose 0% and 0.5 hour = 100%
# Description: Purified diglycosidase was diluted with 20 mM acetate buffer of pH 4.0 to prepare a 0.75 AU/mL enzyme solution.
# With a glucose solution was mixed 10 μL of each 2 mM substrate solution described in Example 2, and 20 mM acetate buffer of pH 4.0 was added thereto to be a liquid volume of 210 μL. Further, 40 μL of the enzyme solution was added and reaction was carried out at a final liquid volume of 250 μL. Adjustment of the glucose solution to be added allows glucose to exist in the reaction mixture in the range of 0 to 20%. The reaction was carried out at 55° C. and the existence of isoflavone glycosides and aglycon isoflavones was detected by HLPC at 0, 0.5, 1, and 3 hours of the reaction.
SMILES,increase of isolated aglycon versus diglycosidase alone [1] [fold],aglycon ([2]; Reaction time 0 h),glucoside ([2]; Reaction time 0 h),aglycon ([2]; Reaction time 1 h),glucoside ([2]; Reaction time 1 h),aglycon ([2]; Reaction time 3 h),glucoside ([2]; Reaction time 3 h),aglycon ([2]; Reaction time 6 h),glucoside ([2]; Reaction time 6 h),aglycon ([3]; Reaction time 0 h),glucoside ([3]; Reaction time 0 h),aglycon ([3]; Reaction time 1 h),glucoside ([3]; Reaction time 1 h),aglycon ([3]; Reaction time 3 h),glucoside ([3]; Reaction time 3 h),aglycon ([3]; Reaction time 6 h),glucoside ([3]; Reaction time 6 h),aglycon ([4]; Reaction time 0 h),glucoside ([4]; Reaction time 0 h),aglycon ([4]; Reaction time 1 h),further results
O=c1c(-c2ccc(O)cc2)coc2cc(O)ccc12 [daidzein],1.2,–,–,–,–,–,–,–,–,–,–,–,–,–,–,–,–,–,–,–,–
COc1cc2c(=O)c(-c3ccc(O)cc3)coc2cc1O [glycitein],1.23,–,–,–,–,–,–,–,–,–,–,–,–,–,–,–,–,–,–,–,–
"O=C(O)CC(=O)OC[C@H]1O[C@@H](Oc2cc(O)c3c(=O)c(-c4ccc(O)cc4)coc3c2)[C@H](O)[C@@H](O)[C@@H]1O [malonylgenistin, 6″-O-malonylgenistin]",–,0,100,2.4,97.6,5.2,94.8,8.2,91.8,0,100,0,100,0.6,99.4,2,98,0,100,0,glucoside ([4]; Reaction time 1 h): 100; aglycon ([4]; Reaction time 3 h): 0; glucoside ([4]; Reaction time 3 h): 100; aglycon ([4]; Reaction time 6 h): 0; glucoside ([4]; Reaction time 6 h): 100; Isolation of isoflavone aglycons by diglycosidase in presence of glucose (Purified diglycosidase; Glucose concentration 0 %): 100%; Isolation of isoflavone aglycons by diglycosidase in presence of glucose (Purified diglycosidase; Glucose concentration 2 %): 152%; Isolation of isoflavone aglycons by diglycosidase in presence of glucose (Purified diglycosidase; Glucose concentration 4 %): 164.7%; Isolation of isoflavone aglycons by diglycosidase in presence of glucose (Purified diglycosidase; Glucose concentration 8 %): 163.5%; Isolation of isoflavone aglycons by diglycosidase in presence of glucose (Purified diglycosidase; Glucose concentration 20 %): 139.5%

# Further lines, with some results ahead:
increase of isolated aglycon versus diglycosidase alone [1] [fold],aglycon ([2]; Reaction time 0 h),glucoside ([2]; Reaction time 0 h),aglycon ([2]; Reaction time 1 h),glucoside ([2]; Reaction time 1 h),aglycon ([2]; Reaction time 3 h),glucoside ([2]; Reaction time 3 h),aglycon ([2]; Reaction time 6 h),glucoside ([2]; Reaction time 6 h),aglycon ([3]; Reaction time 0 h),glucoside ([3]; Reaction time 0 h),aglycon ([3]; Reaction time 1 h),glucoside ([3]; Reaction time 1 h),aglycon ([3]; Reaction time 3 h),glucoside ([3]; Reaction time 3 h),aglycon ([3]; Reaction time 6 h),glucoside ([3]; Reaction time 6 h),aglycon ([4]; Reaction time 0 h),glucoside ([4]; Reaction time 0 h),aglycon ([4]; Reaction time 1 h),SMILES,further results
1.20,–,–,–,–,–,–,–,–,–,–,–,–,–,–,–,–,–,–,–,O=c1c(-c2ccc(O)cc2)coc2cc(O)cc(O)c12 [genistein],–
–,0,100,0.4,99.6,0.8,99.2,1.4,98.6,0,100,0,100,0,100,0.4,99.6,0,100,0,"COc1cc2c(=O)c(-c3ccc(O)cc3)coc2cc1O[C@@H]1O[C@H](COC(=O)CC(=O)O)[C@@H](O)[C@H](O)[C@H]1O [malonylglycitin, 6″-O-malonylglycitin]",glucoside ([4]; Reaction time 1 h): 100; aglycon ([4]; Reaction time 3 h): 0; glucoside ([4]; Reaction time 3 h): 100; aglycon ([4]; Reaction time 6 h): 0; glucoside ([4]; Reaction time 6 h): 100; Isolation of isoflavone aglycons by diglycosidase in presence of glucose (Purified diglycosidase; Glucose concentration 0 %): 100%; Isolation of isoflavone aglycons by diglycosidase in presence of glucose (Purified diglycosidase; Glucose concentration 2 %): 121.4%; Isolation of isoflavone aglycons by diglycosidase in presence of glucose (Purified diglycosidase; Glucose concentration 4 %): 127.6%; Isolation of isoflavone aglycons by diglycosidase in presence of glucose (Purified diglycosidase; Glucose concentration 8 %): 128.6%; Isolation of isoflavone aglycons by diglycosidase in presence of glucose (Purified diglycosidase; Glucose concentration 20 %): 116.4%
